Test results as given in the supplement of paper PMC10627819.

Columns and labels:
S. pneumoniae D39V [1] = experiment: fitness (endpoint OD595 vs no drug) (fraction); higher = more growth
How it was run: (§1)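 Fitness was measured as bacterial growth in 384-well plates inoculated at OD595 0.01 (30 µl, or 55 µl for S. pneumoniae). Media were TSB, LB Lennox or CY, at 37 °C. OD595 was read every 30 min for 14 h and background-subtracted against the first reading. Fitness is OD595 at the transition into stationary phase divided by the robust mean of no-drug control wells, capped at 1.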

B. subtilis 168 [2] = experiment: as above
How it was run: as §1

S. aureus Newman [3] = experiment: as above
How it was run: as §1

S. aureus DSM 20231 = experiment: Bliss interaction score (quartile over a dose matrix) (fitness difference); higher = more antagonism (negative = synergy)
How it was run: (§2)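 Fitness was OD595 at entry into stationary phase divided by the plate's robust no-drug mean and capped at 1; single-drug fitness was inferred from combination data. The Bliss score is observed minus expected (product) fitness, summarised by quartiles over technical, biological and donor/recipient replicates.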

S. pneumoniae D39V [4] = experiment: as above
How it was run: as §2

B. subtilis 168 [5] = experiment: as above
How it was run: as §2

S. aureus Newman [6] = experiment: as above
How it was run: as §2
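Throughout, for Bliss interaction score (quartile over a dose matrix): first quartile when negative (synergy) and third quartile when positive (antagonism).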

O=C(O)c1cn(C2CC2)c2cc(N3CCNCC3)c(F)cc2c1=O [Ciprofloxacin] + C[C@@H]1O[C@@H]1P(=O)(O)O [Fosfomycin]
Conditions	fitness
B. subtilis 168 [2], first compound 0.0098 µg/mL, partner 1.562 µg/mL	0.669
B. subtilis 168 [2], first compound 0.0098 µg/mL, partner 3.124 µg/mL	0.577
B. subtilis 168 [2], first compound 0.0195 µg/mL, partner 1.562 µg/mL	0.409
B. subtilis 168 [2], first compound 0.0195 µg/mL, partner 6.248 µg/mL	0.169
B. subtilis 168 [2], first compound 0.039 µg/mL, partner 1.562 µg/mL	0.0478
B. subtilis 168 [2], first compound 0.039 µg/mL, partner 3.124 µg/mL	0.035
B. subtilis 168 [2], first compound 0.039 µg/mL, partner 6.248 µg/mL	0.0167
S. aureus Newman [3], first compound 0.0375 µg/mL, partner 0.781 µg/mL	0.553
S. aureus Newman [3], first compound 0.0375 µg/mL, partner 1.562 µg/mL	0.455
S. aureus Newman [3], first compound 0.0375 µg/mL, partner 3.124 µg/mL	0.0938
S. aureus Newman [3], first compound 0.075 µg/mL, partner 0.781 µg/mL	0.527
S. aureus Newman [3], first compound 0.075 µg/mL, partner 3.124 µg/mL	0.117
S. aureus Newman [3], first compound 0.15 µg/mL, partner 0.781 µg/mL	0.168
S. aureus Newman [3], first compound 0.15 µg/mL, partner 1.562 µg/mL	0.114
S. aureus Newman [3], first compound 0.15 µg/mL, partner 3.124 µg/mL	0.0354
S. pneumoniae D39V [1], first compound 0.125 µg/mL, partner 1.25 µg/mL	0.94
S. pneumoniae D39V [1], first compound 0.125 µg/mL, partner 2.5 µg/mL	0.892
S. pneumoniae D39V [1], first compound 0.125 µg/mL, partner 5 µg/mL	0.688
S. pneumoniae D39V [1], first compound 0.25 µg/mL, partner 1.25 µg/mL	0.865
S. pneumoniae D39V [1], first compound 0.25 µg/mL, partner 2.5 µg/mL	0.782
S. pneumoniae D39V [1], first compound 0.25 µg/mL, partner 5 µg/mL	0.652
S. pneumoniae D39V [1], first compound 0.5 µg/mL, partner 5 µg/mL	0.42

Conditions	Bliss interaction score
B. subtilis 168 [5]	-0.177
S. aureus DSM 20231	0.042
S. aureus Newman [6]	0.0638
S. pneumoniae D39V [4]	-0.0628

O=C(O)c1cn(C2CC2)c2cc(N3CCNCC3)c(F)cc2c1=O [Ciprofloxacin] + C[n+]1ccc(-c2cc[n+](C)cc2)cc1 [Paraquat]
Conditions	fitness
B. subtilis 168 [2], first compound 0.0098 µg/mL, partner 1.25 µg/mL	0.895
B. subtilis 168 [2], first compound 0.0098 µg/mL, partner 2.5 µg/mL	0.922
B. subtilis 168 [2], first compound 0.0098 µg/mL, partner 5 µg/mL	0.788
B. subtilis 168 [2], first compound 0.0195 µg/mL, partner 1.25 µg/mL	0.753
B. subtilis 168 [2], first compound 0.0195 µg/mL, partner 2.5 µg/mL	0.657
B. subtilis 168 [2], first compound 0.0195 µg/mL, partner 5 µg/mL	0.687
B. subtilis 168 [2], first compound 0.039 µg/mL, partner 1.25 µg/mL	0.171
B. subtilis 168 [2], first compound 0.039 µg/mL, partner 2.5 µg/mL	0.171
B. subtilis 168 [2], first compound 0.039 µg/mL, partner 5 µg/mL	0.234
S. aureus Newman [3], first compound 0.0375 µg/mL, partner 1.25 µg/mL	0.662
S. aureus Newman [3], first compound 0.0375 µg/mL, partner 2.5 µg/mL	0.639
S. aureus Newman [3], first compound 0.0375 µg/mL, partner 5 µg/mL	0.642
S. aureus Newman [3], first compound 0.075 µg/mL, partner 1.25 µg/mL	0.674
S. aureus Newman [3], first compound 0.075 µg/mL, partner 2.5 µg/mL	0.635
S. aureus Newman [3], first compound 0.075 µg/mL, partner 5 µg/mL	0.663
S. aureus Newman [3], first compound 0.15 µg/mL, partner 1.25 µg/mL	0.033
S. aureus Newman [3], first compound 0.15 µg/mL, partner 2.5 µg/mL	0.0399
S. aureus Newman [3], first compound 0.15 µg/mL, partner 5 µg/mL	0.0549
S. pneumoniae D39V [1], first compound 0.125 µg/mL, partner 1.5 µg/mL	0.983
S. pneumoniae D39V [1], first compound 0.125 µg/mL, partner 3 µg/mL	0.974
S. pneumoniae D39V [1], first compound 0.125 µg/mL, partner 6 µg/mL	0.97
S. pneumoniae D39V [1], first compound 0.25 µg/mL, partner 1.5 µg/mL	0.942
S. pneumoniae D39V [1], first compound 0.25 µg/mL, partner 3 µg/mL	0.913
S. pneumoniae D39V [1], first compound 0.25 µg/mL, partner 6 µg/mL	0.902
S. pneumoniae D39V [1], first compound 0.5 µg/mL, partner 1.5 µg/mL	0.877
S. pneumoniae D39V [1], first compound 0.5 µg/mL, partner 3 µg/mL	0.875

Conditions	Bliss interaction score
B. subtilis 168 [5]	-0.0477
S. aureus DSM 20231	-0.0499
S. aureus Newman [6]	-0.0507
S. pneumoniae D39V [4]	0.0853

O=C(O)c1cn(C2CC2)c2cc(N3CCNCC3)c(F)cc2c1=O [Ciprofloxacin] + Cc1cc(NS(=O)(=O)c2ccc(N)cc2)no1 [Sulfamethoxazol]
fitness
Conditions	partner 1 µg/mL	partner 2 µg/mL	partner 4 µg/mL
B. subtilis 168 [2], first compound 0.0098 µg/mL	0.89	0.858	0.913
B. subtilis 168 [2], first compound 0.0195 µg/mL	0.734	0.702	0.671
B. subtilis 168 [2], first compound 0.039 µg/mL	0.0972	0.132	0.0479
S. aureus Newman [3], first compound 0.0375 µg/mL	0.732	0.715	0.722
S. aureus Newman [3], first compound 0.075 µg/mL	0.623	–	0.643
S. aureus Newman [3], first compound 0.15 µg/mL	0.124	0.0895	0.0354
S. pneumoniae D39V [1], first compound 0.125 µg/mL	0.93	0.952	0.96
S. pneumoniae D39V [1], first compound 0.25 µg/mL	0.846	0.863	0.821

fitness, one replicate
Conditions	first compound 0.0098 µg/mL	first compound 0.0195 µg/mL	first compound 0.039 µg/mL	first compound 0.078 µg/mL	first compound 0.156 µg/mL	first compound 0.312 µg/mL
B. subtilis 168 [2], partner 0.5 µg/mL	0.967	0.88	0.376	–	–	–
S. aureus Newman [3], partner 2 µg/mL	–	–	–	0.76	0.495	0.0936
S. aureus Newman [3], partner 4 µg/mL	–	–	–	0.764	0.475	0.0929
S. aureus Newman [3], partner 8 µg/mL	–	–	–	0.708	0.353	0.0905

Conditions	Bliss interaction score
B. subtilis 168 [5]	-0.0827
S. aureus DSM 20231	-0.0468
S. aureus Newman [6]	-0.0651
S. pneumoniae D39V [4]	0.0466

O=C(O)c1cn(C2CC2)c2cc(N3CCNCC3)c(F)cc2c1=O [Ciprofloxacin] + Cc1ncc([N+](=O)[O-])n1CCO [Metronidazole]
Conditions	fitness
B. subtilis 168 [2], first compound 0.0098 µg/mL, partner 0.625 µg/mL	0.951
B. subtilis 168 [2], first compound 0.0098 µg/mL, partner 1.25 µg/mL	0.922
B. subtilis 168 [2], first compound 0.0098 µg/mL, partner 2.5 µg/mL	0.89
B. subtilis 168 [2], first compound 0.0195 µg/mL, partner 0.625 µg/mL	0.771
B. subtilis 168 [2], first compound 0.0195 µg/mL, partner 1.25 µg/mL	0.75
B. subtilis 168 [2], first compound 0.0195 µg/mL, partner 2.5 µg/mL	0.727
B. subtilis 168 [2], first compound 0.039 µg/mL, partner 1.25 µg/mL	0.29
B. subtilis 168 [2], first compound 0.039 µg/mL, partner 2.5 µg/mL	0.222
S. aureus Newman [3], first compound 0.0375 µg/mL, partner 0.625 µg/mL	0.649
S. aureus Newman [3], first compound 0.0375 µg/mL, partner 1.25 µg/mL	0.694
S. aureus Newman [3], first compound 0.0375 µg/mL, partner 2.5 µg/mL	0.693
S. aureus Newman [3], first compound 0.075 µg/mL, partner 0.625 µg/mL	0.725
S. aureus Newman [3], first compound 0.075 µg/mL, partner 2.5 µg/mL	0.732
S. aureus Newman [3], first compound 0.15 µg/mL, partner 2.5 µg/mL	0.0713
S. pneumoniae D39V [1], first compound 0.125 µg/mL, partner 1.073 µg/mL	0.935
S. pneumoniae D39V [1], first compound 0.125 µg/mL, partner 1.25 µg/mL	0.98
S. pneumoniae D39V [1], first compound 0.125 µg/mL, partner 2.145 µg/mL	0.894
S. pneumoniae D39V [1], first compound 0.125 µg/mL, partner 2.5 µg/mL	0.987
S. pneumoniae D39V [1], first compound 0.125 µg/mL, partner 4.29 µg/mL	0.916
S. pneumoniae D39V [1], first compound 0.125 µg/mL, partner 5 µg/mL	0.983
S. pneumoniae D39V [1], first compound 0.25 µg/mL, partner 1.073 µg/mL	0.923
S. pneumoniae D39V [1], first compound 0.25 µg/mL, partner 2.145 µg/mL	0.895
S. pneumoniae D39V [1], first compound 0.25 µg/mL, partner 4.29 µg/mL	0.892
S. pneumoniae D39V [1], first compound 0.5 µg/mL, partner 1.073 µg/mL	0.711
S. pneumoniae D39V [1], first compound 0.5 µg/mL, partner 2.5 µg/mL	0.781
S. pneumoniae D39V [1], first compound 0.5 µg/mL, partner 4.29 µg/mL	0.69
S. pneumoniae D39V [1], first compound 0.5 µg/mL, partner 5 µg/mL	0.81

fitness, one replicate
Conditions	partner 0.781 µg/mL	partner 1.25 µg/mL	partner 1.562 µg/mL	partner 2.5 µg/mL	partner 3.124 µg/mL	partner 5 µg/mL
S. aureus Newman [3], first compound 0.0375 µg/mL	0.653	–	0.663	–	0.644	–
S. aureus Newman [3], first compound 0.075 µg/mL	0.648	–	0.736	–	0.703	–
S. aureus Newman [3], first compound 0.15 µg/mL	0.0339	–	0.0507	–	0.0416	–
S. pneumoniae D39V [1], first compound 0.25 µg/mL	–	0.903	–	0.911	–	0.902

Conditions	Bliss interaction score
B. subtilis 168 [5]	0.0696
S. aureus DSM 20231	0.0471
S. aureus Newman [6]	0.0782
S. pneumoniae D39V [4]	0.0544
